Data as given in ChEMBL document CHEMBL2150977, “Synthesis of highly water-soluble fibrate derivatives via BGLation” (Bioorg Med Chem Lett, 2012).
The source made the active and inactive calls. No cut-off for these calls is given here.

Legend:
[1] = system: Rattus norvegicus; experiment: Antihyperlipidemic activity in Sprague-Dawley rat assessed as decrease in plasma triglyceride level at […], po administered QD for 8 days relative to vehicle-treated control; format: functional, organism-based
[2] = system: Rattus norvegicus; experiment: Toxicity in Sprague-Dawley rat assessed as body weight loss at […], po relative to vehicle-treated control; format: organism-based; conditions: in vivo
[3] = system: Rattus norvegicus; experiment: Toxicity in Sprague-Dawley rat assessed as aberrant behaviour at […], po relative to vehicle-treated control; format: organism-based; conditions: in vivo
[4] = Aqueous solubility of the compound; format: physicochemical; conditions: water
[5] = system: Rattus norvegicus; experiment: Drug metabolism in Sprague-Dawley rat assessed as fenofibric acid level in plasma at 150 mg/kg, po after 4 hrs; format: ADME, organism-based; parameters: dose 150 mg/kg, route oral; conditions: in vivo
[6] = system: Rattus norvegicus; experiment: Drug metabolism in Sprague-Dawley rat assessed as fenofibric acid level in plasma at 100 mg/kg, po after 4 hrs; format: ADME, organism-based; parameters: dose 100 mg/kg, route oral; conditions: in vivo

Which Activity [1] does the source give for CC(C)(Oc1ccc(C(=O)c2ccc(Cl)cc2)cc1)C(=O)OCCO here?
The Activity was “Active”.

What about the Activity [2] of the same compound?
The Activity was “Non-toxic”.

And the Activity [3]?
Its Activity is “Non-toxic”.

For CC(C)(Oc1ccc(C(=O)c2ccc(Cl)cc2)cc1)C(=O)OC(COC(CO)CO)COC(CO)CO, which solubility [4] is on record?
The solubility was over 1000 µg/mL.

What about the Activity [1] of the same compound?
Its Activity is “Active”.

And the Drug metabolism [5]?
The Drug metabolism was “Active”.

And the Activity [2]?
The Activity was “Non-toxic”.

What about the Activity [3] of the same compound?
The Activity was “Non-toxic”.

For CC(C)(Oc1ccc(C(=O)c2ccc(Cl)cc2)cc1)C(=O)OC(CO)CO, which Activity [1] is on record?
The Activity was “Active”.

And the Activity [2]?
Its Activity is “Non-toxic”.

And the Activity [3]?
The Activity was “Non-toxic”.

With CC(C)OC(=O)C(C)(C)Oc1ccc(C(=O)c2ccc(Cl)cc2)cc1 [FENOFIBRATE] as the compound, how does the Activity [1] read?
The Activity was “Active”.

And the Drug metabolism [6]?
The Drug metabolism was “Active”.

For CC(C)(Oc1ccc(CCNC(=O)c2ccc(Cl)cc2)cc1)C(=O)OC(COC(CO)CO)COC(CO)CO, which solubility [4] is on record?
Its solubility is over 1000 µg/mL.

For CC(C)(Oc1ccc(Cl)cc1)C(=O)OC(COC(CO)CO)COC(CO)CO, which solubility [4] is on record?
The solubility was over 1000 µg/mL.
